According to patent US20210038607A1, “OXADIAZOLYLTHIOPHENE DERIVATIVES USEFUL AS HISTONE DEACETYLASE INHIBITORS” (Karus Therapeutics Limited, priority 2018, published 2021):

What was measured:
Human HDAC4 = target: T1, Human HDAC4 (Homo sapiens, UniProt P56524); test: HDAC4 biochemical assay, class IIa-specific substrate; conditions: read-out: HDAC Isoform IC50 (nM) 4
T1 construct: amino acids 627-1085 with N-terminal GST tag; GST (N); host or cells: baculovirus expression system
Outline: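 GST-tagged human HDAC4 (aa 627-1085, baculovirus) at 0.004 ng/ul was incubated 30 min at room temperature with 50 μM class IIa-specific substrate BOC-Lys(trifluoroacetyl)-AMC in Tris-HCl pH 8.0 buffer with BSA, 1% DMSO. Developer then released AMC, read at 360/460 nm.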

Human HDAC8 = target: T2, Human HDAC8 (Homo sapiens, UniProt Q9BY41); test: HDAC8 biochemical assay, AMC-labeled peptide substrate; conditions: read-out: HDAC Isoform IC50 (nM) 8
T2 construct: full length with C-terminal His tag, MW=42.6 kDa; His (C); host or cells: baculovirus expression system
T2 sequence (Q9BY41 1-377): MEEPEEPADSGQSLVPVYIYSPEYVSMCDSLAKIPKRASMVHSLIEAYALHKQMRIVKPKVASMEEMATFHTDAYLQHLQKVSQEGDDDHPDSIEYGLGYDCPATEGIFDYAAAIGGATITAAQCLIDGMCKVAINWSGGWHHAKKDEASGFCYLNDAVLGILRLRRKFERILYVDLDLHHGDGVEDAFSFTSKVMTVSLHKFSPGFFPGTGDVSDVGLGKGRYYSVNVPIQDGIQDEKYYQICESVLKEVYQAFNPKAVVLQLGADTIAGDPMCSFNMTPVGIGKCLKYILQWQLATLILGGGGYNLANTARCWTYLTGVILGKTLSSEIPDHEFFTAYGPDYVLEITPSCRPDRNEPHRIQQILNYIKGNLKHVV
Outline: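 Full-length human HDAC8 with C-terminal His tag, baculovirus-expressed, 1 ng/ul, with 100 µM RHK(Ac)K(Ac)AMC substrate in Tris-HCl pH8.0 buffer with BSA, 1% DMSO. Incubated 2 h at 30° C, then developer added to cleave deacetylated substrate; fluorescence read at 360/460 Ex/Em.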

Human HDAC2 = target: T3, Human HDAC2 (Homo sapiens, UniProt Q92769); test: HDAC2 biochemical assay, AMC-labeled peptide substrate; conditions: read-out: HDAC Isoform IC50 (nM) 2
T3 construct: full length with C-terminal GST-tag; GST (C); host or cells: baculovirus expression system
Outline: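 Full-length human HDAC2 with C-terminal GST tag, baculovirus-expressed, at 0.07 ng/ul with 50 μM RHKK(Ac)AMC substrate in Tris-HCl pH8.0 buffer with BSA, 1% DMSO final. Incubated 1 hour at 30° C with compounds, then developer added; fluorescence read at 360/460 Ex/Em.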

Human HDAC9 = target: T4, Human HDAC9 (Homo sapiens, UniProt Q9UKV0); test: HDAC9 biochemical assay, class IIa-specific substrate; conditions: read-out: HDAC Isoform IC50 (nM) 9
T4 construct: amino acids 604-1066 with C-terminal His tag; His (C); host or cells: baculovirus expression system
Outline: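 HDAC9 residues 604-1066 (C-terminal His tag, baculovirus-expressed) at 0.06 ng/ul with 50 μM class IIa substrate Boc-Lys(trifluoroacetyl)-AMC in Tris-HCl pH 8.0 buffer with BSA and 1% DMSO. 30 min at room temperature, then developer added; fluorescence read at 360/460 nm Ex/Em.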

Human HDAC10 = target: T5, Human HDAC10 (Homo sapiens, UniProt Q969S8); test: HDAC10 biochemical assay, AMC-labeled peptide substrate; conditions: read-out: HDAC Isoform IC50 (nM) 10
T5 construct: Human HDAC10 (a.a. 1-481); GST (N); His (C); host or cells: baculovirus expression system
T5 sequence (Q969S8 1-481): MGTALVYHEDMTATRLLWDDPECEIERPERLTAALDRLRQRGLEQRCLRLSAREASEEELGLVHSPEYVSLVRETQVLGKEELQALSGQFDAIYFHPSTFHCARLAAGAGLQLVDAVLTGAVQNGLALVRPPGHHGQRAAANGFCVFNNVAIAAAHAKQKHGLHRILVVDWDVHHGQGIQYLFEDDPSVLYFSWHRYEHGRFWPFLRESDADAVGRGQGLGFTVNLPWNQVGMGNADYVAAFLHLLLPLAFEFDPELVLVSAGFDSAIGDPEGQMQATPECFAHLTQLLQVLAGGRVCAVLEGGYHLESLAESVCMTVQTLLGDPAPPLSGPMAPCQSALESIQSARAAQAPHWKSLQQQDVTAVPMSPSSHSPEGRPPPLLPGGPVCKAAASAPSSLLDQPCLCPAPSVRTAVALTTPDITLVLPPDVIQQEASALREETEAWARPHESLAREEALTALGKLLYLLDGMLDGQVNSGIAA
Outline: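 Baculovirus-expressed GST/His-tagged human HDAC10 (aa 1-481), 12 ng/ul, incubated with 50 μM RHKK(Ac)AMC in Tris pH 8.0 buffer with BSA and 1% DMSO, 2 h at 30 °C. Developer then releases AMC, read at 360/460 nm.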

T3 sequence (Q92769 whole entry, canonical isoform): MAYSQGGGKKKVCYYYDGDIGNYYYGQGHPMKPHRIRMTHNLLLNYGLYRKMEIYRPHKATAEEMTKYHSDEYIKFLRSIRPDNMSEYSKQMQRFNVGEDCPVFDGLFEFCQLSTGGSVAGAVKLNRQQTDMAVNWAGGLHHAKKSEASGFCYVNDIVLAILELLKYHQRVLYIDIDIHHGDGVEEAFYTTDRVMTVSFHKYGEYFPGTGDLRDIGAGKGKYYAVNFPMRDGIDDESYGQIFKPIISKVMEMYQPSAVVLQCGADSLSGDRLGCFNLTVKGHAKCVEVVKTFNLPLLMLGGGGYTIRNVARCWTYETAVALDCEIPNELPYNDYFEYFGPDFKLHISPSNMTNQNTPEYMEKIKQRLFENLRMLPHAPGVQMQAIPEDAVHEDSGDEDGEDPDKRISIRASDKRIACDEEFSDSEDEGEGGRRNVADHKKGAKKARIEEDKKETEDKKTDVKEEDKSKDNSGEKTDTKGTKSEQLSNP
T4 sequence (Q9UKV0 604-1066 isoform Q9UKV0-5): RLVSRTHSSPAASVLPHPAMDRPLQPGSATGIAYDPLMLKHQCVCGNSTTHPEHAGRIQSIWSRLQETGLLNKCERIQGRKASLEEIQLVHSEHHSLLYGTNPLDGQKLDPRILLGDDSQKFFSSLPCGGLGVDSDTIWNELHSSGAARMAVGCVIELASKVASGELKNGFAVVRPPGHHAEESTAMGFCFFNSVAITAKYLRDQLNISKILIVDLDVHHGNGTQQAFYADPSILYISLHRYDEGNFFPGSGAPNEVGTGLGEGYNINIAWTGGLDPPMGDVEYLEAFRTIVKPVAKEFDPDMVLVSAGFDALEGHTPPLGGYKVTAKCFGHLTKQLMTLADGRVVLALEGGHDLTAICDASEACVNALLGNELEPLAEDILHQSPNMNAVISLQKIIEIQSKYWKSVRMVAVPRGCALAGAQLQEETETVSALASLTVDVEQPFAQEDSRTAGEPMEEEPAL
T1 sequence (P56524 627-1084 limits assumed): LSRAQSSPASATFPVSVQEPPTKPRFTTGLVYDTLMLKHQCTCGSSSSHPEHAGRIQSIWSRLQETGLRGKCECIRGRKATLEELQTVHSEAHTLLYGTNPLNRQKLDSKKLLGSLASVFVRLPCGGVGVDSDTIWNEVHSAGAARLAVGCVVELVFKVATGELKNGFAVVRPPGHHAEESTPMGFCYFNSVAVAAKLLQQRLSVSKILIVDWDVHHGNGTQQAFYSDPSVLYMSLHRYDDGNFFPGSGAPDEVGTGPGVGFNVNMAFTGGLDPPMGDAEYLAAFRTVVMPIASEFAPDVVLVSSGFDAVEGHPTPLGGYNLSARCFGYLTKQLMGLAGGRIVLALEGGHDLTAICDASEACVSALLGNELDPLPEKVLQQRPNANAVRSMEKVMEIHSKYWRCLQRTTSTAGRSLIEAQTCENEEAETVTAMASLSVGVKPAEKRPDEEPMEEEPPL

IC50 (Human HDAC4) [nM]	IC50 (Human HDAC8) [nM]	IC50 (Human HDAC2) [nM]	IC50 (Human HDAC9) [nM]	IC50 (Human HDAC10) [nM]	SMILES
≤ 10000	> 10000	> 10000	≤ 10000	> 10000	FC(F)(F)c1nc(-c2ccc(CN(c3ccccn3)c3cnccn3)s2)no1 [Example V, N-(Pyridin-2-yl)-N-({5-[5-(trifluoromethyl)-1,2,4-oxadiazol-3-yl]thiophen-2-yl}methyl)pyrazin-2-amine]
≤ 1000	≤ 10000	> 10000	≤ 10000	> 10000	FC(F)(F)c1ccc(N(Cc2ccc(-c3noc(C(F)(F)F)n3)s2)c2cnccn2)nn1 [Example DH, N-(Pyrazin-2-yl)-6-(trifluoromethyl)-N-({5-[5-(trifluoromethyl)-1,2,4-oxadiazol-3-yl]thiophen-2-yl}methyl)pyridazin-3-amine]
≤ 1000	≤ 10000	> 10000	≤ 10000	> 10000	FC(F)(F)c1nc(-c2ccc(CN(c3cnccn3)c3ccc(N4CCCC4)nn3)s2)no1 [Example DI, N-(Pyrazin-2-yl)-6-(pyrrolidin-1-yl)-N-({5-[5-(trifluoromethyl)-1,2,4-oxadiazol-3-yl]thiophen-2-yl}methyl)pyridazin-3-amine]
≤ 500	≤ 10000	> 10000	≤ 500	> 10000	FC(F)(F)c1nc(-c2ccc(CN(c3cncnc3)c3cnccn3)s2)no1 [Example CR, N-(Pyrazin-2-yl)-N-({5-[5-(trifluoromethyl)-1,2,4-oxadiazol-3-yl]thiophen-2-yl}methyl)pyrimidin-5-amine]
≤ 10000			≤ 10000		CS(=O)(=O)c1nccc(N(Cc2ccc(-c3noc(C(F)(F)F)n3)s2)c2cnccn2)n1 [Example CE, 2-Methanesulfonyl-N-(pyrazin-2-yl)-N-({5-[5-(trifluoromethyl)-1,2,4-oxadiazol-3-yl]thiophen-2-yl}methyl)pyrimidin-4-amine]
≤ 500	≤ 10000	> 10000	≤ 500	> 10000	FC(F)(F)c1nc(-c2ccc(CN(c3ccncn3)c3cnccn3)s2)no1 [Example BZ, N-(Pyrazin-2-yl)-N-({5-[5-(trifluoromethyl)-1,2,4-oxadiazol-3-yl]thiophen-2-yl}methyl)pyrimidin-4-amine]
≤ 500	≤ 10000	> 10000	≤ 10000	> 10000	CS(=O)(=O)c1ccc(N(Cc2ccc(-c3noc(C(F)(F)F)n3)s2)c2cnccn2)nn1 [Example DL, 6-Methanesulfonyl-N-(pyrazin-2-yl)-N-({5-[5-(trifluoromethyl)-1,2,4-oxadiazol-3-yl]thiophen-2-yl}methyl)pyridazin-3-amine]
